Structures can show the parent of a compound that is named as a salt.
target: T1, recombinant human mPGES-1 (Homo sapiens, UniProt O14684); assay: mPGES-1 inhibition, HTRF detection of PGE2; format: biochemical
T1 construct: made in house; host or cells: Rosetta E. coli (microsomal/membrane fraction)
T1 sequence (O14684 1-152): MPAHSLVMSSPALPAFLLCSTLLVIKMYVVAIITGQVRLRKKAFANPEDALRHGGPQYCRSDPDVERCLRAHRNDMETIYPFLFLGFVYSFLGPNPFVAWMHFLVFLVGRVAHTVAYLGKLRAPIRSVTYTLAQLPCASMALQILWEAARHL
Method in brief: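 Bacterial microsomes with GSH-containing phosphate buffer at pH 7.4 are exposed to test compounds for 25 minutes before a one-minute PGH2 conversion. The quenched, 750-fold diluted mixture is analysed by time-resolved FRET for PGE2.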

Row | Structure (SMILES) | inhibition at 10 µM
1 | CCCCC[C@H](C)NC(=O)c1cnc2c(c1)nc(Nc1c(Cl)cccc1Cl)n2C [Example 497, (S)-2-(2,6-Dichlorophenylamino)-N-(hept-2-yl)-3-methyl-3H-imidazo[4,5-b]pyridine-6-carboxamide] | 98%
2 | CCCCCC[C@@H](C)NC(=O)c1cnc2c(c1)nc(Nc1c(Cl)cccc1Cl)n2C [Example 411, (R)-2-(2,6-Dichlorophenylamino)-3-methyl-N-(oct-2-yl)-3H-imidazo[4,5-b]pyridine-6-carboxamide] | 100%
3 | O=C(NCc1ccccc1C(F)(F)F)c1cc2nc(Nc3c(Cl)cncc3Cl)[nH]c2nc1OCC(F)(F)F [Example 853, 2-(3,5-Dichloro-pyridin-4-ylamino)-5-(2,2,2-trifluoro-ethoxy)-N-(2-trifluoromethyl-benzyl)-3H-imidazo[4,5-b]pyridine-6-carboxamide] | 100%
4 | CC(C)[C@H]1CC[C@H](NC(=O)c2cnc3[nH]c(Nc4c(Cl)cccc4Cl)nc3c2)CC1 [Example 394, 2-(2,6-Dichlorophenylamino)-N-((1r,4r)-4-isopropylcyclohexyl)-3H-imidazo[4,5-b]pyridine-6-carboxamide] | 100%
5 | COCCOc1nc2c(cc1C(=O)N[C@H]1CC[C@H](C(F)(F)F)CC1)nc(Nc1c(Cl)cc(F)cc1Cl)n2C [Example 869, 2-(2,6-Dichloro-4-fluoro-phenylamino)-5-(2-methoxy-ethoxy)-N-(trans-4-trifluoromethyl-cyclohexyl)-3-methyl-3H-imidazo[4,5-b]pyridine-6-carboxamide] | 100%
6 | CC(C)n1c(Nc2ccccc2Cl)nc2cc(C(=O)NC3CCC(C)(C)CC3)cnc21 [Example 541, 2-(2-Chlorophenylamino)-N-(4,4-dimethylcyclohexyl)-3-isopropyl-3H-imidazo[4,5-b]pyridine-6-carboxamide hydrochloride] | 74%
7 | CC(C)n1c(Nc2c(Cl)cccc2Cl)nc2cc(C(=O)NC3CCC(C)(C)CC3)cnc21 [Example 505, 2-(2,6-Dichlorophenylamino)-N-(4,4-dimethylcyclohexyl)-3-isopropyl-3H-imidazo[4,5-b]pyridine-6-carboxamide] | 100%

Next, values leading:

Row | inhibition at 10 µM | Structure (SMILES)
8 | 98% | O=C(NCc1ccccc1C(F)(F)F)c1cc2nc(Nc3c(Cl)cc(F)cc3Cl)[nH]c2nc1OCC(F)(F)F [Example 828, 2-(2,6-Dichloro-4-fluoro-phenylamino)-5-(2,2,2-trifluoro-ethoxy)-N-(2-trifluoromethyl-benzyl)-3H-imidazo[4,5-b]pyridine-6-carboxamide]
9 | 99% | COc1nc2c(cc1C(=O)Nc1cc(C(F)(F)F)ccn1)nc(Nc1c(Cl)cccc1Cl)n2C [Example 386, 2-(2,6-Dichloro-phenylamino)-5-methoxy-3-methyl-N-(4-trifluoromethyl-pyridin-2-yl)-3H-imidazo[4,5-b]pyridine-6-carboxamide formate]
10 | 100% | Cn1c(Nc2c(Cl)cc(F)cc2Cl)nc2cc(C(=O)Nc3cc(C(F)(F)F)ccn3)c(OCC(F)(F)F)nc21 [Example 815, 2-(2,6-Dichloro-4-fluoro-phenylamino)-5-(2,2,2-trifluoro-ethoxy)-N-(4-trifluoromethyl-pyridin-2-yl)-3-methyl-3H-imidazo[4,5-b]pyridine-6-carboxamide]
11 | 100% | Cn1c(Nc2c(Cl)cncc2Cl)nc2cc(C(=O)Nc3cc(C(F)(F)F)ccn3)c(OCCF)nc21 [Example 831, 2-(3,5-Dichloro-pyridin-4-ylamino)-5-(2-fluoro-ethoxy)-N-(4-trifluoromethyl-pyridin-2-yl)-3-methyl-3H-imidazo[4,5-b]pyridine-6-carboxamide]
12 | 98% | O=C(NCc1ncccc1C(F)(F)F)c1cc2nc(Nc3c(Cl)cc(F)cc3Cl)[nH]c2nc1OCC(F)(F)F [Example 830, 2-(2,6-Dichloro-4-fluoro-phenylamino)-5-(2,2,2-trifluoro-ethoxy)-N-((3-trifluoromethyl-pyridin-2-yl)-methyl)-3H-imidazo[4,5-b]pyridine-6-carboxamide]

Reference: patent US8703796B2, “3H-imidazo [4, 5-B] pyridine-6-carboxamides as anti-inflammatory agents” (Boehringer Ingelheim International GmbH, priority 2008, dated 2014)
